What was measured:
[1] = Cytotoxicity against human HEL cells; assay type: cell-based
[2] = Cytotoxicity against cat CRFK cells; assay type: cell-based, Felis catus
[3] = system: CCRF-CEM; test: Cytotoxicity against human CEM cells; assay type: cell-based
[4] = system: L1210; test: Cytotoxicity against mouse L1210 cells; assay type: cell-based
[5] = system: Human immunodeficiency virus 2; test: Antiviral activity against HIV-2 ROD infected in human CEM cells assessed as HIV-induced host giant cell formation after 4 days by microscopic analysis; assay type: functional, organism-based; conditions: Human immunodeficiency virus 2, ISOLATE ROD, CCRF-CEM, 96 h
[6] = system: Human immunodeficiency virus 1; test: Antiviral activity against HIV-1 3B infected in human CEM cells assessed as HIV-induced host giant cell formation after 4 days by microscopic analysis; assay type: functional, organism-based; conditions: Human immunodeficiency virus 1, 3B, CCRF-CEM, 96 h
[7] = system: Felid alphaherpesvirus 1; test: Antiviral activity against Feline herpesvirus in cat CrFK cells assessed as plaque formation; assay type: functional, organism-based; conditions: Felid alphaherpesvirus 1, CRFK
[8] = system: Feline coronavirus; test: Antiviral activity against Feline coronavirus in cat CrFK cells assessed as plaque formation; assay type: functional, organism-based; conditions: Alphacoronavirus 1, CRFK
[9] = system: Cytomegalovirus; test: Antiviral activity against Cytomegalovirus Davis infected in HEL cells assessed as inhibition of virus-induced cytopathicity; assay type: functional, organism-based; conditions: Human betaherpesvirus 5, Davis
[10] = system: Human betaherpesvirus 5; test: Antiviral activity against Cytomegalovirus AD-169 infected in HEL cells assessed as inhibition of virus-induced cytopathicity; assay type: functional, organism-based; conditions: Human betaherpesvirus 5, AD169, HEL
[11] = system: Human alphaherpesvirus 3; test: Antiviral activity against Varicellla-zoster virus 07-1 infected in HEL cells assessed as inhibition of virus-induced cytopathicity; assay type: functional, organism-based; conditions: Human alphaherpesvirus 3, 07-1, HEL
[12] = system: Human alphaherpesvirus 3; test: Antiviral activity against Varicellla-zoster virus Oka infected in HEL cells assessed as inhibition of virus-induced cytopathicity; assay type: functional, cell-based; conditions: Human alphaherpesvirus 3, strain Oka vaccine
[13] = system: Human alphaherpesvirus 1; test: Antiviral activity against thymidine kinase-deficient ACV-resistant HSV-1 KOS infected in HEL cells assessed as inhibition of virus-induced cytopathicity; assay type: functional, organism-based; conditions: Human alphaherpesvirus 1, KOS
[14] = system: Vesicular stomatitis virus; test: Antiviral activity against Vesicular somatitis virus infected in HEL cells assessed as inhibition of virus-induced cytopathicity; assay type: functional, organism-based
[15] = system: Vaccinia virus; test: Antiviral activity against Vaccinia virus Lederle infected in HEL cells assessed as inhibition of virus-induced cytopathicity; assay type: functional, organism-based; conditions: Orthopoxvirus vaccinia
[16] = system: Human alphaherpesvirus 2; test: Antiviral activity against HSV-2 G infected in HEL cells assessed as inhibition of virus-induced cytopathicity; assay type: functional, organism-based; conditions: Human alphaherpesvirus 2, strain G
[17] = system: Human alphaherpesvirus 1; test: Antiviral activity against HSV-1 KOS infected in HEL cells assessed as inhibition of virus-induced cytopathicity; assay type: functional, organism-based; conditions: Human alphaherpesvirus 1, KOS

| Compound | MCC [1] [µM] | CC50 [2] [µM] | IC50 [3] [µM] | IC50 [4] [µM] | EC50 [5] [µM] | EC50 [6] [µM] | EC50 [7] [µM] | EC50 [8] [µM] | EC50 [9] [µM] | EC50 [10] [µM] | EC50 [11] [µM] | EC50 [12] [µM] | EC50 [13] [µM] | EC50 [14] [µM] | EC50 [15] [µM] | EC50 [16] [µM] | EC50 [17] [µM] |
| --- | --- | --- | --- | --- | --- | --- | --- | --- | --- | --- | --- | --- | --- | --- | --- | --- | --- |
| C[C@H](NP(=O)(Oc1cccc2ccccc12)O[C@H]1O[C@H](CO)[C@@H](O)C1(F)F)C(=O)OC1CCCCC1 (stereo not given in full) | ≥ 100 | > 100 | > 30 | > 30 | > 50 | > 50 | > 20 | > 20 | > 20 | > 20 | > 20 | > 20 | > 20 | > 20 | > 20 | > 20 | > 20 |
| C[C@H](NP(=O)(Oc1ccccc1)O[C@@H]1O[C@H](CO)[C@@H](O)C1(F)F)C(=O)OC1CCCCC1 (stereo not given in full) | ≥ 100 | > 100 | > 30 | > 30 | > 250 | > 250 | > 20 | > 20 | > 20 | > 20 | > 20 | > 20 | > 20 | > 20 | > 20 | > 20 | > 20 |
| C[C@H](NP(=O)(Oc1cccc2ccccc12)O[C@@H]1O[C@H](CO)[C@@H](O)C1(F)F)C(=O)OC1CCCCC1 (mixture of isomers) | ≥ 100 | > 100 | > 30 | > 30 | > 50 | > 50 | > 20 | > 20 | > 20 | > 20 | > 20 | > 20 | > 20 | > 20 | > 20 | > 20 | > 20 |
| C[C@H](NP(=O)(Oc1ccccc1)O[C@H]1O[C@H](CO)[C@@H](O)C1(F)F)C(=O)OCC(C)(C)C (mixture of isomers) | ≥ 100 | > 100 | > 30 | > 30 | > 250 | > 250 | > 20 | > 20 | > 20 | > 20 | > 20 | > 20 | > 20 | > 20 | > 20 | > 20 | > 20 |
| COC(=O)[C@H](C)NP(=O)(Oc1ccccc1)O[C@H]1O[C@H](CO)[C@@H](O)C1(F)F (mixture of isomers) | ≥ 100 | > 100 | > 30 | > 30 | > 250 | > 250 | > 20 | > 20 | > 20 | > 20 | > 20 | > 20 | > 20 | > 20 | > 20 | > 20 | > 20 |
| COC(=O)[C@@H](NP(=O)(Oc1ccccc1)O[C@H]1O[C@H](CO)[C@@H](O)C1(F)F)C(C)C (mixture of isomers) | ≥ 100 | > 100 | > 30 | > 30 | > 250 | > 250 | > 20 | > 20 | > 20 | > 20 | > 20 | > 20 | > 20 | > 20 | > 20 | > 20 | > 20 |
| COC(=O)[C@@H](NP(=O)(Oc1cccc2ccccc12)O[C@H]1O[C@H](CO)[C@@H](O)C1(F)F)C(C)C (mixture of isomers) | ≥ 100 | > 100 | > 30 | > 30 | > 50 | > 50 | > 20 | > 20 | > 20 | > 20 | > 20 | > 20 | > 20 | > 20 | > 20 | > 20 | > 20 |
| C[C@H](NP(=O)(Oc1cccc2ccccc12)O[C@H]1O[C@H](CO)[C@@H](O)C1(F)F)C(=O)OCC(C)(C)C (mixture of isomers) | ≥ 100 | > 100 | > 30 | > 30 | > 50 | > 50 | > 20 | > 20 | > 20 | > 20 | > 20 | > 20 | > 20 | > 20 | > 20 | > 20 | > 20 |
| COC(=O)[C@H](C)NP(=O)(Oc1cccc2ccccc12)O[C@H]1O[C@H](CO)[C@@H](O)C1(F)F (mixture of isomers) | ≥ 100 | > 100 | > 30 | > 30 | > 50 | > 50 | > 20 | > 20 | > 20 | > 20 | > 20 | > 20 | > 20 | > 20 | > 20 | > 20 | > 20 |
| C[C@H](NP(=O)(Oc1ccccc1)O[C@@H]1O[C@H](CO)[C@@H](O)C1(F)F)C(=O)OCC(C)(C)C (mixture of isomers) | ≥ 100 | > 100 | > 30 | > 30 | > 250 | > 250 | > 20 | > 20 | > 20 | > 20 | > 20 | > 20 | > 20 | > 20 | > 20 | > 20 | > 20 |
| COC(=O)[C@H](C)NP(=O)(Oc1ccccc1)O[C@@H]1O[C@H](CO)[C@@H](O)C1(F)F (mixture of isomers) | ≥ 100 | > 100 | > 30 | > 30 | > 250 | > 250 | > 20 | > 20 | > 20 | > 20 | > 20 | > 20 | > 20 | > 20 | > 20 | > 20 | > 20 |
| COC(=O)[C@@H](NP(=O)(Oc1ccccc1)O[C@@H]1O[C@H](CO)[C@@H](O)C1(F)F)C(C)C (mixture of isomers) | ≥ 100 | > 100 | > 30 | > 30 | > 250 | > 250 | > 20 | > 20 | > 20 | > 20 | > 20 | > 20 | > 20 | > 20 | > 20 | > 20 | > 20 |
| COC(=O)[C@@H](NP(=O)(Oc1cccc2ccccc12)O[C@@H]1O[C@H](CO)[C@@H](O)C1(F)F)C(C)C (mixture of isomers) | ≥ 100 | > 100 | > 30 | > 30 | > 50 | > 50 | > 20 | > 20 | > 20 | > 20 | > 20 | > 20 | > 20 | > 20 | > 20 | > 20 | > 20 |
| C[C@H](NP(=O)(Oc1cccc2ccccc12)O[C@@H]1O[C@H](CO)[C@@H](O)C1(F)F)C(=O)OCC(C)(C)C (mixture of isomers) | ≥ 100 | > 100 | > 30 | > 30 | > 50 | > 50 | > 20 | > 20 | > 20 | > 20 | > 20 | > 20 | > 20 | > 20 | > 20 | > 20 | > 20 |
| COC(=O)[C@H](C)NP(=O)(Oc1cccc2ccccc12)O[C@@H]1O[C@H](CO)[C@@H](O)C1(F)F (mixture of isomers) | ≥ 100 | > 100 | > 30 | > 30 | > 50 | > 50 | > 20 | > 20 | > 20 | > 20 | > 20 | > 20 | > 20 | > 20 | > 20 | > 20 | > 20 |
